# Biological target: T1, DLK (Homo sapiens, UniProt Q12852)
# T1 construct: N-terminally GST-tagged DLK (catalytic domain amino acid 1-520) (Carna Bioscience); GST (N); purchased Carna Bioscience
# T1 sequence (Q12852 1-520): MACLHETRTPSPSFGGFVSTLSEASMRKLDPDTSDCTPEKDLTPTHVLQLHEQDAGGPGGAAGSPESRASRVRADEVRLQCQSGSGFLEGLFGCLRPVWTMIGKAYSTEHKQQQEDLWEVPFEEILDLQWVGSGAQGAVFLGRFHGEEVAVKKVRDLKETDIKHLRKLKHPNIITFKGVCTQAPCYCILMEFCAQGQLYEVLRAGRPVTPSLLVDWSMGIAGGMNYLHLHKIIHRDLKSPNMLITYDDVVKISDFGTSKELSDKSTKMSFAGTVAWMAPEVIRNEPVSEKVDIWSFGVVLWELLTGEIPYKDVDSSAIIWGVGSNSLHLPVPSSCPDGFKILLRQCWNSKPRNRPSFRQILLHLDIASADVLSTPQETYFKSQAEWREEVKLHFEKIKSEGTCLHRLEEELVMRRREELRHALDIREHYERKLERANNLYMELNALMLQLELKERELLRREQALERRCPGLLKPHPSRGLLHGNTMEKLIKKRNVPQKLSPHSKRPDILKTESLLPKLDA
# Experiment: DLK TR-FRET assay
# Type: biochemical
# Conditions: 5 nM GST-tagged DLK (catalytic domain amino acid 1-520), 40 nM HIS-tagged MKK4 K131M substrate, 30 μM ATP, 60 minutes
# Experimental: DLK TR-FRET assay: DLK kinase reactions (20 μL) containing 5 nM N-terminally GST-tagged DLK (catalytic domain amino acid 1-520) (Carna Bioscience), 40 nM N-terminally HIS-tagged MKK4 K131M substrate, and 30 μM ATP in kinase reaction buffer (50 mM HEPES, pH 7.5, 0.01% Triton X-100, 0.01% Bovine γ-Globulins, 2 mM DTT, 10 mM MgCl2 and 1 mM EGTA), and testing compound 1:3 serial diluted starting at 20 uM were incubated at ambient temperature for 60 minutes in 384 well OptiPlate (Perkin Elmer). To quench kinase reactions and detect phosphorylated MKK4, 15 μL of TR-FRET antibody mixture containing 2 nM anti-phosphorylated MKK4 labeled with Europium cryptate (Cisbio) and 23 nM anti-HIS labeled with D2 (Cisbio) in detection buffer (25 mM Tris pH 7.5, 100 mM NaCl, 100 mM EDTA, 0.01% Tween-20, and 200 mM KF) was added to the reaction mixture. The detection mixture was incubated for 3 hours at ambient temperature and the TR-FRET was detected with an EnVision multilabel plate reader (Perkin-Elmer) using the LANCE/DELFIA Dual Enh label from Perkin-Elmer (excitation filter: UV2 (TRF) 320 and emission filters: APC 665 and Europium 615).
row,SMILES,Ki
1,"C[C@@H]1CCCN1c1cc(C2CCN(C3COC3)CC2)cc(Nc2cc(C#N)ccn2)n1 [Example 121, 2-[6-((R)-2-Methyl-pyrrolidin-1-yl)-1′-oxetan-3-yl-1′,2′,3′,4′,5′,6′-hexahydro-[4,4′]bipyridinyl-2-ylamino]-isonicotinonitrile]",0.2 nM
2,"FC(F)c1ccnc(Nc2cc(C3CCN(C4COC4)CC3)cc(C3CC3)n2)c1 [Example 25, (6-Cyclopropyl-1′-oxetan-3-yl-1′,2′,3′,4′,5′,6′-hexahydro-[4,4′]bipyridinyl-2-yl)-(4-difluoromethyl-pyridin-2-yl)-amine]",0.84 nM
3,"O=C([C@@H]1CCCCN1)N1CCC(c2ccnc(Nc3ccccn3)c2)CC1 [Example 146, (S)-piperidin-2-yl(4-(2-(pyridin-2-ylamino)pyridin-4-yl)piperidin-1-yl)methanone]",2100 nM
4,"CS(=O)(=O)N1CC(c2cc(Nc3cc(C(F)(F)F)ccn3)nc(N3CCC(F)(F)C3)c2)C1 [Example 126, [6-(3,3-Difluoro-pyrrolidin-1-yl)-4-(1-methanesulfonyl-azetidin-3-yl)-pyridin-2-yl]-(4-trifluoromethyl-pyridin-2-yl)-amine]",6.6 nM
5,"N#Cc1ccnc(Nc2cc(C3CCOCC3)cc(N3CC4(CCOC4)C3)n2)c1 [Example 102, 2-[6-(6-Oxa-2-aza-spiro[3.4]oct-2-yl)-4-(tetrahydro-pyran-4-yl)-pyridin-2-ylamino]-isonicotinonitrile]",88 nM
6,"Cc1ccnc(Nc2cc(C3CCN(S(C)(=O)=O)CC3)cc(N3CCC[C@H]3C)n2)c1 [Example 136, [1′-Methanesulfonyl-6-((R)-2-methyl-pyrrolidin-1-yl)-1′,2′,3′,4′,5′,6′-hexahydro-[4,4′]bipyridinyl-2-yl]-(4-methyl-pyridin-2-yl)-amine]",25 nM
7,"N#Cc1ccnc(Nc2cc(C3(C#N)CCOCC3)cc(C3CC3)n2)c1 [Example 63, 2-[4-(4-Cyano-tetrahydro-pyran-4-yl)-6-cyclopropyl-pyridin-2-ylamino]-isonicotinonitrile]",8.6 nM
8,"Cc1cc(C2=CCOCC2)cc(Nc2cc(C#N)ccn2)n1 [Example 112, 2-[4-(3,6-Dihydro-2H-pyran-4-yl)-6-methyl-pyridin-2-ylamino]-isonicotinonitrile]",220 nM
9,"FC(F)c1ccnc(Nc2cc(C3CCN(C4COC4)CC3)cc(N3CCC3)n2)c1 [Example 51, (6-Azetidin-1-yl-1′-oxetan-3-yl-1′,2′,3′,4′,5′,6′-hexahydro-[4,4′]bipyridinyl-2-yl)-(4-difluoromethyl-pyridin-2-yl)-amine]",2.4 nM
10,"COC1CCN(c2cc(C3CCOCC3)cc(Nc3cc(C#N)ccn3)n2)C1 (centres unmarked) [Example 101, 2-[6-(3-Methoxy-pyrrolidin-1-yl)-4-(tetrahydro-pyran-4-yl)-pyridin-2-ylamino]-isonicotinonitrile]",38 nM
11,"N#Cc1ccnc(Nc2cc(C3CN(C4COC4)C3)cc(Cl)n2)c1 [Example 24, 2-[6-Chloro-4-(1-oxetan-3-yl-azetidin-3-yl)-pyridin-2-ylamino]-isonicotinonitrile]",140 nM
12,"N#Cc1ccnc(Nc2cc(C3CCN(C4COC4)CC3)cc(N3CC4CC3C4)n2)c1 [Example 90, 2-[6-(2-Aza-bicyclo[2.1.1]hex-2-yl)-1′-oxetan-3-yl-1′,2′,3′,4′,5′,6′-hexahydro-[4,4′]bipyridinyl-2-ylamino]-isonicotinonitrile]",1.9 nM
13,"N#Cc1ccnc(Nc2cc(C3CCOCC3)cc(N3CC4CC(F)(F)C4C3)n2)c1 (centres unmarked) [Example 100, 2-[6-(6,6-Difluoro-3-aza-bicyclo[3.2.0]hept-3-yl)-4-(tetrahydro-pyran-4-yl)-pyridin-2-ylamino]-isonicotinonitrile]",11 nM
14,"N#Cc1ccnc(Nc2cc(C3CCOCC3)cc(N3CC(F)(F)C3)n2)c1 [Example 104, 2-[6-(3,3-Difluoro-azetidin-1-yl)-4-(tetrahydro-pyran-4-yl)-pyridin-2-ylamino]-isonicotinonitrile]",12.6 nM

# Source: patent publication US9399636B2, “Substituted dipyridylamines and uses thereof” (Genentech, Inc., priority 2012, dated 2016)
